Values quoted from earlier work as cited in patent publication US20250283177A1, “BIOMARKERS AND METHODS OF USE THEREOF FOR TREATMENT OF PERIPHERAL T-CELL LYMPHOMA” (BOARD OF REGENTS OF THE UNIVERSITY OF NEBRASKA, priority 2022, published 2025).
Like-named read-outs stand apart in the source and are kept apart here.

Legend:
[1] = test system: peripheral T-cell lymphoma (PTCL); settings: for Overall response rate by common subtype: Phase II studies
[2] = test system: subgroups of PTCL

## C#CCC(Cc1cnc2nc(N)nc(N)c2n1)c1ccc(C(=O)N[C@@H](CCC(=O)O)C(=O)O)cc1 (stereo partly shown) [Pralatrexate]
[1]; subtype AITL
  Overall response rate by common subtype: 8%
[1]; subtype ALCL
  Overall response rate by common subtype: 29%
[1]; subtype PTCL-NOS
  Overall response rate by common subtype: 31%

## C[C@@H](Oc1cc(-c2cnn(C3CCNCC3)c2)cnc1N)c1c(Cl)ccc(F)c1Cl [Crizotinib]
[2]; ALK+ALCL
  Benefit in PTCL subgroup: striking benefits

## Brentuximab vedotin
[1]; ALK(−) ALCL
  Responsiveness to therapy: highly responsive
[1]; subtype AITL
  Overall response rate by common subtype: 54%
[1]; subtype ALCL
  Overall response rate by common subtype: 86%
[1]; subtype PTCL-NOS
  Overall response rate by common subtype: 33%
[2]; CD30+ PTCL, particularly ALCL
  Benefit in PTCL subgroup: striking benefits

## O=C(/C=C/c1cccc(S(=O)(=O)Nc2ccccc2)c1)NO [Belinostat]
[1]; subtype AITL
  Overall response rate by common subtype: 46%
[1]; subtype ALCL
  Overall response rate by common subtype: 15%
[1]; subtype PTCL-NOS
  Overall response rate by common subtype: 23%

B1: mogamulizumab (antibody, chains of the INN, looked up, V domains shown)
VH: EVQLVESGGDLVQPGRSLRLSCAASGFIFSNYGMSWVRQAPGKGLEWVATISSASTYSYYPDSVKGRFTISRDNAKNSLYLQMNSLRVEDTALYYCGRHSDGNFAFGYWGQGTLVTVSS
VL: DVLMTQSPLSLPVTPGEPASISCRSSRNIVHINGDTYLEWYLQKPGQSPQLLIYKVSNRFSGVPDRFSGSGSGTDFTLKISRVEAEDVGVYYCFQGSLLPWTFGQGTKVEIK
[2]; ATLL
  Benefit in PTCL subgroup: striking benefits
